Here are results for three molecules from PMC3101196, “Trapping Conformational States Along Ligand-Binding Dynamics of Peptide Deformylase: The Impact of Induced Fit on Enzyme Catalysis” (PLoS Biology, 2011).

By Km is commonly meant the concentration of substrate that gives half-maximal velocity. As a reminder, the kcat is the number of substrate molecules converted per active site and unit of time at saturation. Broadly, the kcat/Km is the second-order rate constant that governs catalysis at low substrate concentration. What is called Kd is a measure of binding affinity in units of concentration.

Several values for one entry are separate records, joined by “and”; a condition that tells them apart may be missing. Equal values may be shown once.

Data set [1] deals with CSCC[C@H](NC=O)C(=O)N[C@@H](C)C(=O)N[C@@H](CO)C(=O)O. The experiment in a line: purified protein, by the assay type. Particulars: other: G41Q, substrate Fo-Met-Ala-Ser, 100 nM enzyme, 750 µM NiCl2, 37°C.
In data set [2] the test system is AtPDF wild-type (WT) and G41M and G41Q. As to the kind of experiment: ΔΔGbinding calculated from Kd values. Details: species or system Arabidopsis thaliana. Particulars: calculated from the K d values for actinonin binding to WT and G41M and G41Q. The protocol:
The percentage of the distance required to make a hydrogen bond (2.8 Å) is reported (dark squares). […] The values were calculated as follows. For the WT, it corresponds to the RT ln(KI*/KI) value, where R is the ideal gas constant and T is the temperature in Kelvin. RT is 0.616 kcal.mol^−1 at 37°C. For the G41M and G41Q variants, the ΔΔGbinding corresponds to RT ln(KI-G41variant/KD-WT). The obtained values are similar to that obtained if the kcat/Km substitutes the KD value in the calculation (ΔΔGbinding = RT ln(kcat/Km –G41variant/kcat/Km –WT). (EPS) Click here for additional data file.

Data set [3] addresses T1, AtPDF (Arabidopsis thaliana, UniProt Q9FUZ2). As to the kind of experiment: PDF activity assay coupled to formate dehydrogenase (NADH absorbance at 340 nm). Here is the method:
(§1) Assay of PDF activity was coupled to formate dehydrogenase, where the absorbance of NADH at 340 nm was measured at 37°C as previously described. […] The kinetics parameters were derived from iterative non-linear least square calculations using the Michaelis-Menten equation based on the experimental data (Sigma-Plot; Kinetics module). […] The data were then calculated according to the method of Henderson, which can be used to determine the dissociation constant of the tight-binding competitive enzyme inhibitor [28],[49],[72] by varying both the inhibitor and substrate concentrations. To determine K I, k 5, and k 6, the reaction was initiated by the addition of enzyme as previously described,[49]. […] From the set of values obtained at various concentrations of I, k5 and k6 could be derived using kobs = k6 + k5[I]/(KI + [I]).
(§2) The enzyme concentration used in the assay was 100 nM.

The target in data set [4] is T1, AtPDF. As to the kind of experiment: Isothermal titration calorimetry (ITC). The format is binding. On the set-up: Expression and purification of mature Arabidopsis thaliana PDF1B and all variants (i.e., AtPDF); made in house. Particulars: WT; from ITC (value in parentheses); 37°C. Here is the method:
(§3) ITC experiments were performed using a VP-ITC isothermal titration calorimeter (Microcal Corp.). Experiments were performed at 37°C. […] A theoretical titration curve was fitted to the experimental data using the ORIGIN software (Microcal). This software uses the relationship between the heat generated after each injection and ΔH° (enthalpy change in kcal/mol), K A (the association binding constant in M^−1), n (number of binding sites per monomer), total protein concentration, and free and total ligand concentrations. The thermal stability of the WT and variants of Ni-AtPDF1B was studied by DSC using VP-DSC calorimetry (Microcal Corp.). DSC measurements were made with 10 µM protein solutions in buffer C. […] The same buffer was used as a reference. All solutions were degassed just before loading into the calorimeter. Scanning was performed at 1°C/min. The temperature dependence of the partial molar capacity (Cp) was expressed in kcal/K after subtracting the buffer signal using Origin(R) software.
The volume of each reaction was 10 µl, and injections were made at 240 s intervals. Top, raw data from the titration. Each peak corresponds to the injection. Bottom, the peaks in the upper panel were integrated with ORIGIN software and the values were plotted versus injection number. Each point corresponds to the heat in µcal generated by the reaction upon each injection. […]

For data set [5], the target named is T2, AtPDF variant G41M (Arabidopsis thaliana, UniProt Q9FUZ2, G121M).
T2 construct: Expression and purification of mature Arabidopsis thaliana PDF1B and all variants (i.e., AtPDF); made in house
The format is biochemical. Particulars: nm = not measurable. Here is the method: as §1

The target of data set [6] is T1, AtPDF. As to the kind of experiment: Differential scanning calorimetry (DSC), thermal stability. It is filed as binding. Particulars: 10 µM protein, 20 µM actinonin; free enzyme 61°C. Details: Expression and purification of mature Arabidopsis thaliana PDF1B and all variants (i.e., AtPDF); made in house. The protocol:
as §3
(In general: DSC measures the heat that a sample takes up or gives off during a temperature scan.)

Data set [7] addresses T2, AtPDF variant G41M. As to the kind of experiment: Isothermal titration calorimetry (ITC). The format is binding. Here is the method:
as §3
(§4) The volume of each reaction was 10 µl, and injections were made at 240 s intervals. Top, raw data from the titration. Each peak corresponds to the injection. Bottom, the peaks in the upper panel were integrated with ORIGIN software and the values were plotted versus injection number. Each point corresponds to the heat in µcal generated by the reaction upon each injection. The solid line is the curve fit to the data by the Origin program. This fit yields values for K d. Experiments were done with wild type protein and others variants, and gave similar raw data and curve fit. (A) WT; (B) variant G41M; (C) variant I42W. (EPS) Click here for additional data file.

For data set [8], the target named is T3, AtPDF variant I42W (Arabidopsis thaliana, UniProt Q9FUZ2, I122W).
T3 construct: Expression and purification of mature Arabidopsis thaliana PDF1B and all variants (i.e., AtPDF); made in house
The experiment in a line: Isothermal titration calorimetry (ITC). The format is binding. Here is the method: as §3, §4
Target sequence in this assay (Q9FUZ2 57-273 I122W): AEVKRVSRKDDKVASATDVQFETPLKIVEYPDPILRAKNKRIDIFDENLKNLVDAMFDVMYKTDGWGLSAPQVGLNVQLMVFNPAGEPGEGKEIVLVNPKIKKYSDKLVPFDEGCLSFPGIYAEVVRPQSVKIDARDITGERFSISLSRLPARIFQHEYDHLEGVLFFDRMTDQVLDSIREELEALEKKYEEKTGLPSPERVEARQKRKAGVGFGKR

For data set [9], the target named is T4, AtPDF variant I42F (Arabidopsis thaliana, UniProt Q9FUZ2, I122F).
T4 construct: Expression and purification of mature Arabidopsis thaliana PDF1B and all variants (i.e., AtPDF); made in house
The experiment in a line: Isothermal titration calorimetry (ITC). It is filed as binding. Here is the method: as §3, §4
In general terms: In ITC the heat of successive injections is recorded.

Data set [10] addresses T5, AtPDF variant I130A (Arabidopsis thaliana, UniProt Q9FUZ2, I210A).
T5 construct: Expression and purification of mature Arabidopsis thaliana PDF1B and all variants (i.e., AtPDF); made in house
The experiment in a line: biochemical. Particulars: for Ki: 100 nM enzyme. The protocol:
as §1, §2

Data set [11] addresses T6, AtPDF variant I42N (Arabidopsis thaliana, UniProt Q9FUZ2, I122N).
T6 construct: Expression and purification of mature Arabidopsis thaliana PDF1B and all variants (i.e., AtPDF); made in house
As to the kind of experiment: biochemical. Particulars: for Ki: 100 nM enzyme. The protocol: as §1, §2

In data set [12] the target is T3, AtPDF variant I42W. As to the kind of experiment: biochemical. Particulars: for Ki: 100 nM enzyme. Here is the method: as §1, §2
Target sequence in this assay (Q9FUZ2 83-273 I122W): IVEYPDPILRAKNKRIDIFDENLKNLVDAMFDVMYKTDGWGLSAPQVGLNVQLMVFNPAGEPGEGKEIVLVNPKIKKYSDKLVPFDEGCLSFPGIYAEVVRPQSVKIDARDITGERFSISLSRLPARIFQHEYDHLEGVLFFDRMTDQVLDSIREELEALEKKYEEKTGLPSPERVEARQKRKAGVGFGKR
The target in data set [13] is T4, AtPDF variant I42F. As to the kind of experiment: biochemical. Particulars: for Ki: 100 nM enzyme. The protocol: as §1, §2
For data set [14], the target named is T2, AtPDF variant G41M. As to the kind of experiment: Differential scanning calorimetry (DSC), thermal stability. The format is binding. Here is the method:
as §3

The subject of data set [15] is T7, AtPDF variant G41Q.
T7 construct: Expression and purification of mature Arabidopsis thaliana PDF1B and all variants (i.e., AtPDF); made in house
The description is as above. The format is binding, Arabidopsis thaliana. The protocol: as §3

Data set [16] relates to almost all of the AtPDF variants. The data set is described as above. The format is binding, Arabidopsis thaliana. The protocol:
as §3

Data set [17] concerns the target T8, AtPDF variant I42A (Arabidopsis thaliana, UniProt Q9FUZ2, I122A).
T8 construct: Expression and purification of mature Arabidopsis thaliana PDF1B and all variants (i.e., AtPDF); made in house
As to the kind of experiment: biochemical. Here is the method: as §1

For data set [18], the target named is EcPDF (Escherichia coli, UniProt P0A6K3). Here is the method: as §1
Data set [19] has as its target AtPDF variant G41Q (Arabidopsis thaliana, UniProt Q9FUZ2, G121Q). The experiment in a line: PDF activity assay coupled to formate dehydrogenase. The protocol:
as §1

Substrate in data set [20]: CSCC[C@H](NC=O)C(=O)N[C@@H](C)C(=O)N[C@@H](CO)C(=O)O
The experiment in a line: purified protein, by the assay type. Particulars: other: WT, substrate Fo-Met-Ala-Ser, 100 nM enzyme, 750 µM NiCl2, 37°C.

Setting [21] is: value is k5 multiplied by 10^3, no preincubation.
The mark [22] stands for this setting: value is k6 multiplied by 10^4, no preincubation.
The mark [23] stands for this setting: KI*app, 2 mM substrate, actinonin preincubated 10 min at 37°C.
The mark [24] stands for this setting: KI, no preincubation, started by adding enzyme.

T6 sequence (Q9FUZ2 57-273 I122N): as the sequence (Q9FUZ2 57-273 I122W) above, with W66N counted along it
T5 sequence (Q9FUZ2 57-273 I210A): as the sequence (Q9FUZ2 57-273 I122W) above, with W66I, I154A counted along it
T2 sequence (Q9FUZ2 57-273 G121M): as the sequence (Q9FUZ2 57-273 I122W) above, with G65M, W66I counted along it
Sequence of EcPDF (P0A6K3 whole entry): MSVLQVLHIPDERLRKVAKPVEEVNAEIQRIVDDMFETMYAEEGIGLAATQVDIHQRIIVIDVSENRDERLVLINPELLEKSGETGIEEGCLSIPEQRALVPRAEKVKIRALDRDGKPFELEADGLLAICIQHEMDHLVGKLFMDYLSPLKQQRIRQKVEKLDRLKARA
T4 sequence (Q9FUZ2 57-273 I122F): as the sequence (Q9FUZ2 57-273 I122W) above, with W66F counted along it
Sequence of AtPDF variant G41Q (Arabidopsis thaliana, UniProt Q9FUZ2, G121Q) (Q9FUZ2 83-273 G121Q): as the sequence (Q9FUZ2 83-273 I122W) above, with G39Q, W40I counted along it
T8 sequence (Q9FUZ2 57-273 I122A): as the sequence (Q9FUZ2 57-273 I122W) above, with W66A counted along it

Take “AtPDF variant G41Q (Arabidopsis thaliana; G121Q)”: in [1], the Michaelis-Menten constant (Km) is 6.7 ± 1.7 mM, the kcat worked out at 0.14 ± 0.02 s⁻¹ and the kcat/Km was 20 ± 10 M⁻¹ s⁻¹.
In the case of `CCCCC[C@H](CC(=O)NO)C(=O)N[C@H](C(=O)N1CCC[C@H]1CO)C(C)C` [actinonin], the ΔΔGbinding in [2] is 2.2 to 2.4 kcal/mol. In addition, the equilibrium dissociation constant (Kd) in [3] amounted to 0.9 nM; in data set [4], 4.5 nM; in [7] it was 32 nM; in data set [8], 3.7 nM; in [9], 3.6 nM; in data set [11] it was 6.3 nM. Besides, the Kd in [13] was determined as 2.8 nM; in [17], 3 nM; in data set [19], 48 nM. For the same molecule, the Ki turned out to be 0.9 ± 0.5 nM in data set [3] (K I*, enzyme 100 nM, actinonin preincubated with enzyme 10 min at 37°C, assay initiated by substrate); 2.3 ± 0.3 nM in [3] (KI*app, Wild-type, 100 nM enzyme, 2 mM substrate, actinonin preincubated 10 min at 37°C); 1.5 ± 0.4 nM in data set [10] (setting [23]); 36 ± 5 nM in data set [10] (setting [24]); 6.3 ± 0.4 nM in data set [11] (KI*app, I42N, 2 mM substrate, actinonin preincubated 10 min at 37°C); 39 ± 4 nM in [11] (KI, I42N, no preincubation, started by adding enzyme). The Ki was 2.8 ± 0.4 nM in data set [12] (setting [23]); 97 ± 6 nM in data set [12] (setting [24]); 2.8 ± 0.2 nM in data set [13] (KI*app, I42F, 2 mM substrate, actinonin preincubated 10 min at 37°C); 43 ± 5 nM in data set [13] (KI, I42F, no preincubation, started by adding enzyme). Further, the “binding free energy difference between the two complexes” value in data set [3] (WT, RT ln(KI*/KI), 37°C) was 3.1 kcal/mol. For the same molecule, the “k6 (s^-1) x 10^4” value amounted to 10 ± 1 s^-1 x 10^4 in [3] (Wild-type, Table S3 (with KI*app), value is k6 multiplied by 10^4); 21 ± 2 s^-1 x 10^4 in data set [10] (value is k6 multiplied by 10^4); 101 ± 10 s^-1 x 10^4 in data set [11] (I42N, value is k6 multiplied by 10^4); 16 ± 2 s^-1 x 10^4 in data set [12] (value is k6 multiplied by 10^4); 62 ± 6 s^-1 x 10^4 in [13] (I42F, value is k6 multiplied by 10^4). Further, the “k4, dissociation of the primary enzyme-actinonin complex” value is 140 s⁻¹ and 140 ± 10 s⁻¹ in [3] (assumes k3 = 10^9 M−1.s^−1 (diffusion-limited)); 112 ± 10 s⁻¹ in data set [18] (assumes k3 = 10^9 M−1.s^−1). The “k 5 (s^−1) ×10^3” value in data set [3] (setting [21]) was 63±9 s^−1 ×10^3 and 63 ± 6 s^−1 ×10^3; in data set [18] (setting [21]) it was 170±20 s^−1 ×10^3. Besides, the figures for the “k 6 (s^−1) ×10^4” value in data set [3] (setting [22]) and in data set [18] (setting [22]) were 4±1 s^−1 ×10^4 and 19±2 s^−1 ×10^4, respectively. Besides, the “KI*app” value in [5] was “nM”; in [19] (G41Q, nm = not measurable) it was “nM”. For the same molecule, the “T m of AtPDF upon binding of the inhibitor” value in [6] is 81 °C. Further, the “k5 (s^-1) x 10^3” value came out at 49 ± 5 s^-1 x 10^3 in data set [10] (value is k5 multiplied by 10^3); 52 ± 5 s^-1 x 10^3 in data set [11] (I42N, value is k5 multiplied by 10^3); 52 ± 5 s^-1 x 10^3 in data set [12] (value is k5 multiplied by 10^3); 89 ± 9 s^-1 x 10^3 in [13] (I42F, value is k5 multiplied by 10^3). The “increase in the T m by actinonin” value in data set [14] and in [15] was 12 °C each time. Besides, the “increase of T m by actinonin” value in [16] is “more than 20 °C”.

B1: AtPDF (Arabidopsis thaliana) (protein)
chain: AEVKRVSRKDDKVASATDVQFETPLKIVEYPDPILRAKNKRIDIFDENLKNLVDAMFDVMYKTDGIGLSAPQVGLNVQLMVFNPAGEPGEGKEIVLVNPKIKKYSDKLVPFDEGCLSFPGIYAEVVRPQSVKIDARDITGERFSISLSRLPARIFQHEYDHLEGVLFFDRMTDQVLDSIREELEALEKKYEEKTGLPSPERVEARQKRKAGVGFGKR
With B1, in data set [20], the Km is reported as 6.5 ± 0.7 mM, the turnover number (kcat) is 37 ± 2 s⁻¹ and the kcat/Km came to 5700 ± 600 M⁻¹ s⁻¹.
